Test results: ChEMBL document CHEMBL1144455, “A small molecule-kinase interaction map for clinical kinase inhibitors” (Nat Biotechnol, 2005)

Key:
[1] = molecular target: Tyrosine-protein kinase BTK (Homo sapiens, UniProt Q06187)
[2] = molecular target: Fibroblast growth factor receptor 1 (Homo sapiens, UniProt P11362)
[3] = molecular target: Calcium/calmodulin-dependent protein kinase type II subunit beta (Homo sapiens, UniProt Q13554)
[4] = molecular target: Tyrosine-protein kinase HCK (Homo sapiens, UniProt P08631)
[5] = molecular target: T1, Serine/threonine-protein kinase PLK4 (Homo sapiens, UniProt O00444)
T1 sequence (O00444 whole entry): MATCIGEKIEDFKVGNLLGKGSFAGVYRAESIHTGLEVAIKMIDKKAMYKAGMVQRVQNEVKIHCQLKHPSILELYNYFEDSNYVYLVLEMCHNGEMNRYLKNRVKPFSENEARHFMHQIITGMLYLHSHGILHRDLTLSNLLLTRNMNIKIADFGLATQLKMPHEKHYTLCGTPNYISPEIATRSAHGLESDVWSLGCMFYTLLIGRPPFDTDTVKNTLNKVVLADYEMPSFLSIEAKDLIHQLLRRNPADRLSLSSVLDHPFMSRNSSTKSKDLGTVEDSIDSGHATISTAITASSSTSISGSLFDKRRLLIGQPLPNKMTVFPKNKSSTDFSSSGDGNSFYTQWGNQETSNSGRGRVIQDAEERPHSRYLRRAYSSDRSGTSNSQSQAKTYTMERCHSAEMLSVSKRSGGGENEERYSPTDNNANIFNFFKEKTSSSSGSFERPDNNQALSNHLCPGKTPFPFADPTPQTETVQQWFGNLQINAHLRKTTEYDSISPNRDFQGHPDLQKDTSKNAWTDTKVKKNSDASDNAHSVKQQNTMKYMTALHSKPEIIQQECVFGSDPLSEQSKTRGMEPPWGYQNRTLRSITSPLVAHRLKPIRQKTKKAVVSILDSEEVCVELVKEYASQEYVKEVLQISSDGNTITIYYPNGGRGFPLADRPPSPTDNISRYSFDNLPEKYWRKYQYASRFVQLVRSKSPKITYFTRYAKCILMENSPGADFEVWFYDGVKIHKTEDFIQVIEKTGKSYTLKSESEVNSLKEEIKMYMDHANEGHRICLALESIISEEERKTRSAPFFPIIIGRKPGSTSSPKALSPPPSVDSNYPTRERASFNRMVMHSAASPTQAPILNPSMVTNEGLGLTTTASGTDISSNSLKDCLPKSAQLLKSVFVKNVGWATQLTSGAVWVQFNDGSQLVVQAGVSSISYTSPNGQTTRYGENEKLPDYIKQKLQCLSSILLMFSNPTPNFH

[6] = molecular target: T2, Serine/threonine-protein kinase 17A (Homo sapiens, UniProt Q9UEE5)
T2 sequence (Q9UEE5 whole entry): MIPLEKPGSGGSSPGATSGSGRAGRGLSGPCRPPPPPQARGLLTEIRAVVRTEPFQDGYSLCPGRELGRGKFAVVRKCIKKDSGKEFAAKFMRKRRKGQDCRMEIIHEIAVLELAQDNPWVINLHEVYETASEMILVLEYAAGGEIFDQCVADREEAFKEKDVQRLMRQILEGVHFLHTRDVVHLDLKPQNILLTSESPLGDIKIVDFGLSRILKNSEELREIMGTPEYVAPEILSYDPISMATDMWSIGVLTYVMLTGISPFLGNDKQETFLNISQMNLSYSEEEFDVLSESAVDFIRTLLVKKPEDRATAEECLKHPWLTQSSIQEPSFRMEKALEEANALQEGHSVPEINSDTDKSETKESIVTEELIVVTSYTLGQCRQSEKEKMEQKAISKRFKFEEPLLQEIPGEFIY

Ephrin type-A receptor 4 = Ephrin type-A receptor 4 (Homo sapiens, UniProt P54764)
[7] = molecular target: Vascular endothelial growth factor receptor 3 (Homo sapiens, UniProt P35916)
LIM domain kinase 1 = LIM domain kinase 1 (Homo sapiens, UniProt P53667)
[8] = molecular target: Platelet-derived growth factor receptor beta (Homo sapiens, UniProt P09619)
[9] = molecular target: Myosin light chain kinase 2, skeletal/cardiac muscle (Homo sapiens, UniProt Q9H1R3)
[10] = molecular target: Cyclin-dependent kinase 5 (Homo sapiens, UniProt Q00535)
Aurora kinase A = molecular target: T3, Aurora kinase A (Homo sapiens, UniProt O14965)
T3 sequence (O14965 whole entry): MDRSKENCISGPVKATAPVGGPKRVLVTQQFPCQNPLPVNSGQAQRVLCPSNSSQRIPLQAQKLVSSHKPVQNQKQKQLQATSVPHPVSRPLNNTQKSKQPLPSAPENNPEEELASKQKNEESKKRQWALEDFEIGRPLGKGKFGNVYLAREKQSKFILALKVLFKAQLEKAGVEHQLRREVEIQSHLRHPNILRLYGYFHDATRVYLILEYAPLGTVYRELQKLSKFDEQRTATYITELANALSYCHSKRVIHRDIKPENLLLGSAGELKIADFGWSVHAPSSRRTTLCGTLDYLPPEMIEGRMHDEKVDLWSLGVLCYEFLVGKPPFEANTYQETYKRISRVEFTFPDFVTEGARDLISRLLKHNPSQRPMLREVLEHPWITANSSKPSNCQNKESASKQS

[11] = molecular target: MAP kinase-interacting serine/threonine-protein kinase 2 (Homo sapiens, UniProt Q9HBH9)

Measured: Kd

Sequence of Tyrosine-protein kinase HCK (P08631 whole entry): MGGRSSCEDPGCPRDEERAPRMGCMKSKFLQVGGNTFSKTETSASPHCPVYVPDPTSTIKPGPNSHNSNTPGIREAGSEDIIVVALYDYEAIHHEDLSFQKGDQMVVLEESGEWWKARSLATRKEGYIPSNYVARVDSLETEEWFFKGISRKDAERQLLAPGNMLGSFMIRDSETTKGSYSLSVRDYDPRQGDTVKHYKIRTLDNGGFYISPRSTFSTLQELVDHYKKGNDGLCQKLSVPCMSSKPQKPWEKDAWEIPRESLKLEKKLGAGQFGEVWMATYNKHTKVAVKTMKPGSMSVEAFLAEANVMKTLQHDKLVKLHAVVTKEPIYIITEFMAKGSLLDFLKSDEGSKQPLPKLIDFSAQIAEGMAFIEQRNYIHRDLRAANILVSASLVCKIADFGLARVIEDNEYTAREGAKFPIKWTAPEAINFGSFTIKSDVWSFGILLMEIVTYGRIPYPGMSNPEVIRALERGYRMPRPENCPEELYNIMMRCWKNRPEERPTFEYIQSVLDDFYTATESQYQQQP
Sequence of Platelet-derived growth factor receptor beta (P09619 whole entry): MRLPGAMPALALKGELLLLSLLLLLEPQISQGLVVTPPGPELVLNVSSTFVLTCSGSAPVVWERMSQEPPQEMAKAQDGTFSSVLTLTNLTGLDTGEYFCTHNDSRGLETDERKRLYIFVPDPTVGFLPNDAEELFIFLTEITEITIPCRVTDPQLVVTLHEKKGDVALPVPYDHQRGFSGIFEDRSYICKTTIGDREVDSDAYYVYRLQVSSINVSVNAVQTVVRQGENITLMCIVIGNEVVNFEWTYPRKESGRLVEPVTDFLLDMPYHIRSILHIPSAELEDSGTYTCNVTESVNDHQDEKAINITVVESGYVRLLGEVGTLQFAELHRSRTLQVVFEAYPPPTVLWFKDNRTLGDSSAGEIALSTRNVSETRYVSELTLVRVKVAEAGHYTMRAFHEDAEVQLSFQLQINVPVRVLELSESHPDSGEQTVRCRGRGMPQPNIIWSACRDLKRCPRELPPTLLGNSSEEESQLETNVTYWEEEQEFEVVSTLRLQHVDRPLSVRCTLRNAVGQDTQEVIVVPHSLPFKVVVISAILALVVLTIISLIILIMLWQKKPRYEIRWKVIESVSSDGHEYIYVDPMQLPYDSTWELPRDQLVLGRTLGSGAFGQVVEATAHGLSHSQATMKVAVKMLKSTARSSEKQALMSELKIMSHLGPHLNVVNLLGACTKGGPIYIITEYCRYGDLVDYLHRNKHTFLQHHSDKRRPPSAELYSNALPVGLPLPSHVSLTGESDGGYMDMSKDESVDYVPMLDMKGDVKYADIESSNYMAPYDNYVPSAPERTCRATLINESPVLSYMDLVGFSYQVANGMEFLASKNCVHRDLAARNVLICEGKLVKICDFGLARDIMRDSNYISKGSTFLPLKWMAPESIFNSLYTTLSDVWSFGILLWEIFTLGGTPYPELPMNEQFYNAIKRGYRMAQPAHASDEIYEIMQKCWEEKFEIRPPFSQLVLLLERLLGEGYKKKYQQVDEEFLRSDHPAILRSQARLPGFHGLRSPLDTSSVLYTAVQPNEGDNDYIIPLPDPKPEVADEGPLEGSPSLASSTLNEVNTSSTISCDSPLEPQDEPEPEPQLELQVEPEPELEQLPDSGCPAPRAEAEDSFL
Sequence of Vascular endothelial growth factor receptor 3 (P35916 whole entry, the tested form may be a part): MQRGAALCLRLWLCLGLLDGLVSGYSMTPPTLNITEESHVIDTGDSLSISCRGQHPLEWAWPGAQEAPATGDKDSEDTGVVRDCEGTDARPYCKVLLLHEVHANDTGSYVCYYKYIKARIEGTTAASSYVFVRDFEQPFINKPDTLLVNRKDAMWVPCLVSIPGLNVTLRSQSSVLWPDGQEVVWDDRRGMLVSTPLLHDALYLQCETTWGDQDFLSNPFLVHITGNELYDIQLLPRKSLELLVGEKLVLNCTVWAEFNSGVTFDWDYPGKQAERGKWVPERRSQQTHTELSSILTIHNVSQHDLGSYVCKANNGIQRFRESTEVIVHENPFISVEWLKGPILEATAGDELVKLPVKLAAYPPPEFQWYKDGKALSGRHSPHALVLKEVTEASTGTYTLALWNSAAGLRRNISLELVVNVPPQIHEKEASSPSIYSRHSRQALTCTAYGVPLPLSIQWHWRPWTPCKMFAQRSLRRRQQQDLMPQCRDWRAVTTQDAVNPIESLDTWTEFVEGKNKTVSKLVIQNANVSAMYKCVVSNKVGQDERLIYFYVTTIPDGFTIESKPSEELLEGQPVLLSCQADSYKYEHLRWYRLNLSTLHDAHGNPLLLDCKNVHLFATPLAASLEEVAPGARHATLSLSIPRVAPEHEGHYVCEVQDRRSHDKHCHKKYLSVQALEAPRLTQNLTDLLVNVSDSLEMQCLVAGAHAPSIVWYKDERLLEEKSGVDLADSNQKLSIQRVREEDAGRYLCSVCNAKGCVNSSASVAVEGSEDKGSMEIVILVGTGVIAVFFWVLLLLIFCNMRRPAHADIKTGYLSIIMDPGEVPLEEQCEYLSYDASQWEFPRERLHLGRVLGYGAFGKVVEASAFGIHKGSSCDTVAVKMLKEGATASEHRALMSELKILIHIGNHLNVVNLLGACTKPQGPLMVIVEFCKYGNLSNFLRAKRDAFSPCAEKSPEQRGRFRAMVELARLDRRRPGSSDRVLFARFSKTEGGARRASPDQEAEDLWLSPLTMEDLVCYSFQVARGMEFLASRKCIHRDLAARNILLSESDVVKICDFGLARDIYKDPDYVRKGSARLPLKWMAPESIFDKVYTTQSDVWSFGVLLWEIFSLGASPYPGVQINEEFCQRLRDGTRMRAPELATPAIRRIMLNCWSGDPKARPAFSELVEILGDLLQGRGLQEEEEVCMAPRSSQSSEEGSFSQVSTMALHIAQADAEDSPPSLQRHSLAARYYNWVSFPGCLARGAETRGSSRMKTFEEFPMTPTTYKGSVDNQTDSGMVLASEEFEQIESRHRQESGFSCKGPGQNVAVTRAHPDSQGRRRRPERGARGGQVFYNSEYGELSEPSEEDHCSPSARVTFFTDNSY
Sequence of LIM domain kinase 1 (P53667 whole entry, the tested form may be a part): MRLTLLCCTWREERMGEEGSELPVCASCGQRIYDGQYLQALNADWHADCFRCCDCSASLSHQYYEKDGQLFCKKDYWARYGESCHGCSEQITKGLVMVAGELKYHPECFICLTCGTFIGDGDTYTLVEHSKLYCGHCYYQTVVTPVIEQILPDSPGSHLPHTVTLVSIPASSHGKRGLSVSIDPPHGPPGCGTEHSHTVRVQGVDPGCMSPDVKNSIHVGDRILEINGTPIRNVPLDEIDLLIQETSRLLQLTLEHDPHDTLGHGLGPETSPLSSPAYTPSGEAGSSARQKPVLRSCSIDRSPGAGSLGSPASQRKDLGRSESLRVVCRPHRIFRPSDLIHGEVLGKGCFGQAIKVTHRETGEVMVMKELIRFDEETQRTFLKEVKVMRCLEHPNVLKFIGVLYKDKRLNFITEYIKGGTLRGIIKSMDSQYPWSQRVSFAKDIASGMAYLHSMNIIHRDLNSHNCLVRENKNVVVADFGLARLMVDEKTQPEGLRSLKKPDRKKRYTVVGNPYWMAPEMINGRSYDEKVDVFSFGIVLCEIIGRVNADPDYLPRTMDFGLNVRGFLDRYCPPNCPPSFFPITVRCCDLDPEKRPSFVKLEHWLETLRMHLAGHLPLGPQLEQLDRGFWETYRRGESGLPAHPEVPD
Sequence of Cyclin-dependent kinase 5 (Q00535 whole entry): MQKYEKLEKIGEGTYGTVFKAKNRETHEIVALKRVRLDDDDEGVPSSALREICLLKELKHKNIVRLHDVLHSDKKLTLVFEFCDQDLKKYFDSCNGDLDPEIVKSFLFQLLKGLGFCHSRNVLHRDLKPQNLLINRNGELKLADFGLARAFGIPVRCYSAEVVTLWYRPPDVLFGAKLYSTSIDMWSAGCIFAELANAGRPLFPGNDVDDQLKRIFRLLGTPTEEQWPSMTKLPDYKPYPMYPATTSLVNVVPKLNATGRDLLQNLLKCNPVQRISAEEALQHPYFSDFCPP
Sequence of MAP kinase-interacting serine/threonine-protein kinase 2 (Q9HBH9 whole entry): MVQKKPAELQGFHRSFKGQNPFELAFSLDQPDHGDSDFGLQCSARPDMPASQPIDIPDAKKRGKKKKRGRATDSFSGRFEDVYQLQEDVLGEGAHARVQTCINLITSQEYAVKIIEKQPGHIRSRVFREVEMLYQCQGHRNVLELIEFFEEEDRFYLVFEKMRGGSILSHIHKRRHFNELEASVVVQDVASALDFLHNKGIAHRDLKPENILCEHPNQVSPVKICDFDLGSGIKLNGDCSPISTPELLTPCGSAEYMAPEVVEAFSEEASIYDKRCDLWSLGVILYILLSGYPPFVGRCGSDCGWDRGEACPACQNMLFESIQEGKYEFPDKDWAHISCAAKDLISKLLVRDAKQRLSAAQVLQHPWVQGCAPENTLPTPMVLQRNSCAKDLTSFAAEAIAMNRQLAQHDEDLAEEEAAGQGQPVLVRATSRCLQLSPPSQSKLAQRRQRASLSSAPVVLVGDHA
Sequence of Tyrosine-protein kinase BTK (Q06187 whole entry): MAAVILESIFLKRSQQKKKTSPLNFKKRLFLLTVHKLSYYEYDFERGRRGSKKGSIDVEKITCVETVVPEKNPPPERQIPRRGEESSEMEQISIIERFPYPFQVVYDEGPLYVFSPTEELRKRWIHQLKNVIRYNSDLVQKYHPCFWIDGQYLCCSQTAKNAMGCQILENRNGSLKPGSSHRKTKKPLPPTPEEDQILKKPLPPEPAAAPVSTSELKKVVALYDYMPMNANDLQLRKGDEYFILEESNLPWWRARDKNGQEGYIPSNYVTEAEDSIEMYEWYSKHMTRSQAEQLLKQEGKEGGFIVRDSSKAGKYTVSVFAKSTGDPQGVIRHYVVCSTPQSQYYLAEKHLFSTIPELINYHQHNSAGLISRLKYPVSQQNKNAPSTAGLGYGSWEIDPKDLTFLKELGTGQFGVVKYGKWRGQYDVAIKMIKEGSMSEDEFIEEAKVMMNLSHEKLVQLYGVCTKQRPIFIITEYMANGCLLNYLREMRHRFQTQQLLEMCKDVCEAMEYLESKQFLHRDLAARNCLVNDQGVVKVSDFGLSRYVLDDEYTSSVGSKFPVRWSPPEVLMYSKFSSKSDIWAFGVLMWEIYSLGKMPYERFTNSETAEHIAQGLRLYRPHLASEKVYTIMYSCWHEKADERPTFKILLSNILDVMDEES

C#Cc1cccc(Nc2ncnc3cc(OCCOC)c(OCCOC)cc23)c1 [ERLOTINIB]
not listed: Aurora kinase A | [11]
Not Active: all other assays above

Cc1ccc(NC(=O)c2ccc(CN3CCN(C)CC3)cc2)cc1Nc1nccc(-c2cccnc2)n1 [IMATINIB]
not listed: [5] | [6] | [8]
Not Active: all other assays above

O=c1ncn2nc(Sc3ccc(F)cc3F)ccc2c1-c1c(Cl)cccc1Cl [NEFLAMAPIMOD]
not listed: [4] | Ephrin type-A receptor 4 | [8]
Not Active: all other assays above

CCOc1cc2ncc(C#N)c(Nc3ccc(F)c(Cl)c3)c2cc1NC(=O)/C=C/CN(C)C [PELITINIB]
not listed: [1] | [4] | [6] | [9]
Not Active: all other assays above

Oc1ccc(-c2nc(-c3ccc(F)cc3)c(-c3ccncc3)[nH]2)cc1 [SB-202190]
Not Active: all assays above

C[S+]([O-])c1ccc(-c2nc(-c3ccc(F)cc3)c(-c3ccncc3)[nH]2)cc1 (stereo unspecified) [SB-203580]
Not Active: all assays above

CC[C@H](CO)Nc1nc(NCc2ccccc2)c2ncn(C(C)C)c2n1 [SELICICLIB]
not listed: [10]
Not Active: all other assays above

Oc1c2ccccc2c2c3c(cccc13)N=N2 [SP-600125]
Not Active: [1] | [2] | [4] | Ephrin type-A receptor 4 | [7] | LIM domain kinase 1 | [8] | [9]

COc1cc2c(N3CCN(C(=O)Nc4ccc(OC(C)C)cc4)CC3)ncnc2cc1OCCCN1CCCCC1 [TANDUTINIB]
not listed: [8]
Not Active: all other assays above
